Tests used:
[1] = test system: Adult patients with R/R AML (CRS); settings: human, in vivo
[2] = test system: VCAM-1 on endothelial cells (HUVEC); assay: Blinatumumab VCAM assay: VCAM-1 on CD31+ HUVEC in co-culture with T cells and NALM-6 cells (flow cytometry); type: cell-based, human; settings: co-culture of HUVEC, isolated T cells and NALM-6 target cells
Experimental: FIG. 7. VCAM-1 Expression on HUVEC in AMG 103 Co-culture Assays: VCAM-1 expression by flow cytometry. […] expression levels are expressed as Median Fluorescence Intensity (MFI). VCAM-1 expressing HUVEC are expressed as percentage of CD31+ HUVEC. Error bars indicate the standard error of the mean of duplicate measurements. Two PBMC donors were used in this experiment.
The effect of blinatumumab (AMG 103) on T cell activation and the induction of VCAM-1 on endothelial cells was analyzed in co-cultures of HUVEC, isolated T cells and CD19-expressing NALM-6 target cells. VCAM-1 expression on CD31+ HUVEC was analyzed by flow cytometry.

TNF = TNF levels in patients after blinatumomab in cycle 1; type: in vivo, human

| Compound | CRS events per patient [1] | average duration of CRS events [1] | VCAM-1 expression on CD31+ HUVEC [2] | time to maximum TNF levels (TNF) |
| --- | --- | --- | --- | --- |
| C[C@@H]1C[C@H]2[C@@H]3CCC4=CC(=O)C=C[C@]4(C)[C@@]3(F)[C@@H](O)C[C@]2(C)[C@@]1(O)C(=O)CO [dexamethasone] | 2.3 per patient | (b) average duration: 58 hrs | – | – |
| blinatumomab | – | – | up-regulated | ≤ 2 h |
